Laboratory results published in patent US20050119288A1, “Dosing schedule for a novel anticancer agent” (Pfizer Inc, priority 2003, published 2005).

Key:
[1] = Body weight and tolerability, SK-OV-3 study; format: in vivo, mice; conditions: PO
Experimental: (§1) SK-OV-3 cells obtained from ATCC (Rockville, Md.) were grown in McCoy's medium containing 10% fetal bovine serum and pen/strep. Exponentially growing cells were harvested and inoculated SC (5 million cells/animal) into female athymic mice. The tumor measurements and body weight changes were obtained on days 1, 3, 6, 10, 13 and 18. Tumor volume was calculated by the following formula: Tumor volume (mm^3)═(W×W)/2×L (L=length & W=width). Blood samples (˜50 μl) were isolated at 0.5, 1, 2, 4 and 8 hrs after dosing on day 18 for PK-analysis. Tumors were isolated at 0.5 hr post-dosing on day 18 for PD-analysis by ELISA. The p-erbB2 reduction, tumor volume and body weight changes in control and test compound treated animals are shown below in Table 2.

[2] = Pharmacokinetics in MDA-MB-453 tumor-bearing mice; format: in vivo; conditions: day 29; for Cave0-4 h / AUC(0-t) / Cmax: PO; for AUC(0-t) / Cmax: female, athymic, mouse, blood, po; for AUC(0-t): read-out: AUC0-4 h; for Cmax: read-out: Cmax 0.5 h
Experimental: (§2) Study Design: Exponentially growing MDA-MB-453 cells (DMEM/F12 with 10% FBS, and pen/strep [Gibco]) were harvested and inoculated SC (5 million cells/animal) into female athymic mice. MDA-MB-453 tumor bearing mice (˜100 mm^3 in size, N=64) were randomized in 8 groups consisting 8 animals each. Animals were treated with vehicle (PO, QD or BID) or the test compound (PO, QD or BID) as described in Table 6. The tumor measurements and body weight changes were obtained on days 1, 3, 7, 10, 14, 17, 21, 24, and 29. Tumor volume was calculated by the following formula: Tumor volume (mm^3)═(W×W)/2×L (L=length & W=width). Blood samples (˜50 μl) were isolated at 0.5, 1, 2, 4 and 8 hrs after dosing on day 29 for PK-analysis. Tumors were isolated at 0.5 hr post-dosing on day 29 for PD-analysis by ELISA.

[3] = Pharmacokinetics in BT-474 tumor-bearing mice; format: in vivo; conditions: for Cave0-4 h: PO, day 22; for AUC(0-t) / Cmax: female, athymic, mouse, blood, po; for Cmax: day 22, read-out: Cmax 0.5 h
Experimental: Exponentially growing BT-474 cells (RPMI 1640 with 10 mM HEPES, 10% FBS, and pen/strep [Gibco]) were harvested and inoculated SC (5 million cells/animal) into female athymic mice. Trochar pieces of BT-474 tumors were then implanted into the right flank of animals. BT-474 tumor bearing mice (50-320 mm^3 in size, N=40) were randomized in 7 groups consisting 5-6 animals each. Animals were treated with vehicle (PO, BID) or the test compound (PO, QD or BID) as described in Table 4. The tumor measurements and body weight changes were obtained on days 1, 6, 11, 15 and 22. Tumor volume was calculated by the following formula: Tumor volume (mm^3)═(W×W)/2×L (L=length & W=width). Blood samples (˜50 μl) were isolated at 0.5, 1, 2, 4 and 8 hrs after dosing on day 22 for PK-analysis. Tumors were isolated at 0.5 hr post-dosing on day 22 for PD-analysis by ELISA.

[4] = target: erbB2 receptor autophosphorylation (Homo sapiens, UniProt P04626); experiment: p-erbB2 reduction in SK-OV-3 tumors by ELISA; format: in vivo; conditions: 0.5 hr post-dosing on day 18
Experimental: as §1, with “ELISA.” for “ELISA. The p-erbB2 reduction, tumor volume and body weight changes in control and test compound treated animals are shown below in Table 2.”

[5] = test system: p-erbB2 (the phosphorylated form of erbB2 receptor); experiment: p-erbB2 reduction in FRE/erbB2 tumors; format: in vivo, human
Excerpt: An objective of the pre-clinical investigations was to determine whether the Cmax or area under the curve (AUC) of the test compound is critical for the anti-tumor efficacy. An additional goal was to establish a pharmacokinetics/pharmacodynamics (PK/PD) relationship in the FRE/erbB2 tumor model. The FRE/erbB2 is an engineered murine tumor model, which over-expresses human erbB2 with a trans-membrane mutation.

[6] = Body weight and tolerability, MDA-MB-453 study; format: in vivo, mice; conditions: PO
Experimental: as §2

erbB2 receptor autophosphorylation, sequence (P04626 23-1255): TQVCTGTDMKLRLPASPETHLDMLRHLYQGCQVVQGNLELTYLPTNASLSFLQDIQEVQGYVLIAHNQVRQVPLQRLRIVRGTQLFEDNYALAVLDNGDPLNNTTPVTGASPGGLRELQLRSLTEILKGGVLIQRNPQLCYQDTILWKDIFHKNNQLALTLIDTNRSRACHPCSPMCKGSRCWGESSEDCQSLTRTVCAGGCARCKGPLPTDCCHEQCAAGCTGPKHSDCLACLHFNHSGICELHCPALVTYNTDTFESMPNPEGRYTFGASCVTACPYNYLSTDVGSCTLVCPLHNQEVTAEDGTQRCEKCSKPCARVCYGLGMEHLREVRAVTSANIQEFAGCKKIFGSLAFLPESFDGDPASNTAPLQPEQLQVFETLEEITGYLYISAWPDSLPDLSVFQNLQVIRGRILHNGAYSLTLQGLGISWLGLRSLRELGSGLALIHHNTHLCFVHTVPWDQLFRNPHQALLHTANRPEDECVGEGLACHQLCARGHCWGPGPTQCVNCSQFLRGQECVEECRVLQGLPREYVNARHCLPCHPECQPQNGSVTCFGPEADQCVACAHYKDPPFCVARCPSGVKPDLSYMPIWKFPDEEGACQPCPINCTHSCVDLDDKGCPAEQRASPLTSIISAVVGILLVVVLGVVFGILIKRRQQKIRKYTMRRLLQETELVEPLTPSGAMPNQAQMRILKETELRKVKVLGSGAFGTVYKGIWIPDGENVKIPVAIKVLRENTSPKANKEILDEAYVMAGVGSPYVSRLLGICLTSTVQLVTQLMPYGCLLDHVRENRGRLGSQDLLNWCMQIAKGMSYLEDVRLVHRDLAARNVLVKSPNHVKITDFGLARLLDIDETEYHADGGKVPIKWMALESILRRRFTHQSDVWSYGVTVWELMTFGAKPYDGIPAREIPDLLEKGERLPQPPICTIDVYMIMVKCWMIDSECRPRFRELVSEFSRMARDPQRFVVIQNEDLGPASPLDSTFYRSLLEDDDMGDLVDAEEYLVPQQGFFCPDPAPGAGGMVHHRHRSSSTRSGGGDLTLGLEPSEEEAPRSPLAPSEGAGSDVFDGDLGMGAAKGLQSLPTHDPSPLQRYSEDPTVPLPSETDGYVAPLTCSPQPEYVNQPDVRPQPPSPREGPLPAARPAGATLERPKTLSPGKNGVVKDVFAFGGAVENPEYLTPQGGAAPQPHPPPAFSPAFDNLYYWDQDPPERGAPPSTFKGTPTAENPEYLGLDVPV

COCC(=O)NC/C=C/c1ccc2ncnc(Nc3ccc(Oc4ccc(C)nc4)c(C)c3)c2c1 [Test Compound, E-2-Methoxy-N-(3-{4-(3-methyl-4-(6-methyl-pyridin-3-yloxy)-phenylamino)-quinazolin-6-yl}-allyl)-acetamide]
average body weight Day 1 ([1]; BID 25 mg/kg): 24 g | average body weight Day 18 ([1]; BID 25 mg/kg): 26 g | average body weight Day 1 ([1]; BID 50 mg/kg): 24 g | average body weight Day 18 ([1]; BID 50 mg/kg): 25 g | average body weight Day 1 ([1]; BID 100 mg/kg): 23 g | average body weight Day 18 ([1]; BID 100 mg/kg): 23 g | average body weight Day 1 ([1]; QD 50 mg/kg): 23 g | average body weight Day 18 ([1]; QD 50 mg/kg): 24 g | average body weight Day 1 ([1]; QD 100 mg/kg): 23 g | average body weight Day 18 ([1]; QD 100 mg/kg): 25 g | average body weight Day 1 ([1]; QD 200 mg/kg): 23 g | average body weight Day 18 ([1]; QD 200 mg/kg): 24 g | tolerability, body weight loss or animal mortality ([1]; QD or BID, 18 days): well tolerated and there was no body weight loss or animal mortality | Cave0-4 h ([2]; 25 mg/kg, BID): 215 ng/mL | Cave0-4 h ([2]; 50 mg/kg, BID): 509 ng/mL | Cave0-4 h ([2]; 50 mg/kg, QD): 591 ng/mL | Cave0-4 h ([2]; 100 mg/kg, BID): 1710 ng/mL | Cave0-4 h ([2]; 100 mg/kg, QD): 3120 ng/mL | Cave0-4 h ([2]; 200 mg/kg, QD): 6510 ng/mL | Cave0-4 h, 200 mg/kg QD group relative to 100 mg/kg BID group [2]: 3.8 fold | Cmax, 100 mg/kg QD group relative to 50 mg/kg QD and 50 mg/kg BID groups [2]: approximately 4 fold | Cmax, 200 mg/kg QD group relative to 100 mg/kg BID group [2]: 2.4 fold | AUC(0-t) ([2]; 25 mg/kg, BID): 857 ng·h/mL | Cmax ([2]; 25 mg/kg, BID): 952 ng/mL | AUC(0-t) ([2]; 50 mg/kg, BID): 2040 ng·h/mL | Cmax ([2]; 50 mg/kg, BID): 2390 ng/mL | AUC(0-t) ([2]; 50 mg/kg, QD): 2360 ng·h/mL | Cmax ([2]; 50 mg/kg, QD): 2760 ng/mL | AUC(0-t) ([2]; 100 mg/kg, BID): 6840 ng·h/mL | Cmax ([2]; 100 mg/kg, BID): 6870 ng/mL | AUC(0-t) ([2]; 100 mg/kg, QD): 12500 ng·h/mL | Cmax ([2]; 100 mg/kg, QD): 9770 ng/mL | AUC(0-t) ([2]; 200 mg/kg, QD): 26100 ng·h/mL | Cmax ([2]; 200 mg/kg, QD): 16700 ng/mL | Cave0-4 h ([3]; 15 mg/kg, BID): 120 ng/mL | Cave0-4 h ([3]; 30 mg/kg, BID, estimated based on the extrapolated concentration at 4 hr from 2 hr and 8 hr exposures): 360 ng/mL | Cave0-4 h ([3]; 30 mg/kg, QD, estimated based on the extrapolated concentration at 4 hr from 2 hr and 8 hr exposures): 320 ng/mL | Cave0-4 h ([3]; 50 mg/kg, BID): 1320 ng/mL | Cave0-4 h ([3]; 50 mg/kg, QD, estimated based on the extrapolated concentration at 4 hr from 2 hr and 8 hr exposures): 1060 ng/mL | AUC(0-t) ([3]; 15 mg/kg, BID, day 22, read-out: AUC0-4 h): 480 ng·h/mL | Cmax ([3]; 15 mg/kg, BID): 616 ng/mL | Cmax ([3]; 15 mg/kg, QD): 250 ng/mL | AUC(0-t) ([3]; 30 mg/kg, BID, day 22, estimated based on the extrapolated concentration at 4 hr from 2 hr and 8 hr exposures, read-out: AUC0-4 h): 1440 ng·h/mL | Cmax ([3]; 30 mg/kg, BID): 1570 ng/mL | AUC(0-t) ([3]; 30 mg/kg, QD, day 22, estimated based on the extrapolated concentration at 4 hr from 2 hr and 8 hr exposures, read-out: AUC0-4 h): 1280 ng·h/mL | Cmax ([3]; 30 mg/kg, QD): 1800 ng/mL | AUC(0-t) ([3]; 50 mg/kg, BID, day 22, read-out: AUC0-4 h): 5280 ng·h/mL | Cmax ([3]; 50 mg/kg, BID): 6170 ng/mL | AUC(0-t) ([3]; 50 mg/kg, QD, day 22, estimated based on the extrapolated concentration at 4 hr from 2 hr and 8 hr exposures, read-out: AUC0-4 h): 4220 ng·h/mL | Cmax ([3]; 50 mg/kg, QD): 5890 ng/mL | inhibition in vivo at 25 mg/kg ([4]; SK-OV-3, po, 0.5 h, PO, BID 25 mg/kg (Total Daily Dose = 50 mg/kg)): 20% | inhibition in vivo at 50 mg/kg ([4]; SK-OV-3, po, 0.5 h, PO, BID 50 mg/kg (Total Daily Dose = 100 mg/kg)): 24% | inhibition in vivo at 100 mg/kg ([4]; SK-OV-3, po, 0.5 h, PO, BID 100 mg/kg (Total Daily Dose = 200 mg/kg)): 62% | inhibition in vivo at 50 mg/kg ([4]; SK-OV-3, po, 0.5 h, PO, QD 50 mg/kg): 14% | inhibition in vivo at 100 mg/kg ([4]; SK-OV-3, po, 0.5 h, PO, QD 100 mg/kg): 75% | inhibition in vivo at 200 mg/kg ([4]; SK-OV-3, po, 0.5 h, PO, QD 200 mg/kg): 90% | reduction of erbB2 receptor autophosphorylation ([4]; span over 50 mg/kg QD and 25 mg/kg BID): 14-20% | % p-erbB2 reduction ([5]; 1.4 mg/kg IV, QD, 15 min/day): 48% | % p-erbB2 reduction ([5]; 10.7 mg/kg IV, 4 hr/day): 53% | % p-erbB2 reduction ([5]; 25 mg/kg PO, QD, termination of 7 day study): 34% | p-erbB2 reduction ([5]; span over the IV groups 15 min/day and 4 hr/day): 48-53% | average body weight Day 1 ([6]; BID 25 mg/kg): 22 g | average body weight Day 29 ([6]; BID 25 mg/kg): 23 g | average body weight Day 1 ([6]; BID 50 mg/kg): 23 g | average body weight Day 29 ([6]; BID 50 mg/kg): 24 g | average body weight Day 1 ([6]; BID 100 mg/kg): 23 g | average body weight Day 29 ([6]; BID 100 mg/kg): 25 g | average body weight Day 1 ([6]; QD 50 mg/kg): 23 g | average body weight Day 29 ([6]; QD 50 mg/kg): 25 g | average body weight Day 1 ([6]; QD 100 mg/kg): 23 g | average body weight Day 29 ([6]; QD 100 mg/kg): 25 g | average body weight Day 1 ([6]; QD 200 mg/kg): 22 g | average body weight Day 29 ([6]; QD 200 mg/kg): 24 g | tolerability, body weight loss or animal mortality ([6]; QD or BID, 29 days): well tolerated and there was no body weight loss or animal mortality
